Data as given in ChEMBL document CHEMBL6120956, “Discovery of a Potent, Orally Active, and Long-Lasting P2X7 Receptor Antagonist as a Preclinical Candidate for Delaying the Progression of Chronic Kidney Disease” (J Med Chem, 2024).

Tests used:
[1] = target: Voltage-gated inwardly rectifying potassium channel KCNH2 (Homo sapiens, UniProt Q12809); assay: Inhibition of hERG; type: toxicity
CYP2A6 = target: T1, CYP2A6 (Homo sapiens, UniProt P11509); assay: Inhibition of CYP2A6 in human liver microsomes assessed as compound remaining at 1 uM measured after 2 hrs incubation by LC-MS/MS analysis; type: ADME, Microsome; conditions: read-out: Activity
T1 sequence (P11509 whole entry): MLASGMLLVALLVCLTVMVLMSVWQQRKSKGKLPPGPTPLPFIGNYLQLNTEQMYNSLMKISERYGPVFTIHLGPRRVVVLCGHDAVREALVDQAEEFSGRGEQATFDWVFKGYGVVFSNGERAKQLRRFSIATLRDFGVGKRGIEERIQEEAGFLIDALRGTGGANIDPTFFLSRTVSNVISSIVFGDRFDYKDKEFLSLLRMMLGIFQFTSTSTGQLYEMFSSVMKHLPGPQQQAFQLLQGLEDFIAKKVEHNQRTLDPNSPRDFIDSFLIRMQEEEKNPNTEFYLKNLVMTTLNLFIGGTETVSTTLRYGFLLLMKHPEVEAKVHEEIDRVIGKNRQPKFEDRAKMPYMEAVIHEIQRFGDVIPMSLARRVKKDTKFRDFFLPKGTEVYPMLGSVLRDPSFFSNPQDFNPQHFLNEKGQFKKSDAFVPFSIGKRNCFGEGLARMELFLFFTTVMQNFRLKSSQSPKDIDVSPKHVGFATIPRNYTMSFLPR

CYP2C19 = CYP2C19 (Homo sapiens, UniProt P33261); assay: Inhibition of CYP2C19 in human liver microsomes assessed as compound remaining at 1 uM measured after 2 hrs incubation by LC-MS/MS analysis; type: ADME, Microsome; conditions: read-out: Activity
Sequence of CYP2C19 (P33261 whole entry): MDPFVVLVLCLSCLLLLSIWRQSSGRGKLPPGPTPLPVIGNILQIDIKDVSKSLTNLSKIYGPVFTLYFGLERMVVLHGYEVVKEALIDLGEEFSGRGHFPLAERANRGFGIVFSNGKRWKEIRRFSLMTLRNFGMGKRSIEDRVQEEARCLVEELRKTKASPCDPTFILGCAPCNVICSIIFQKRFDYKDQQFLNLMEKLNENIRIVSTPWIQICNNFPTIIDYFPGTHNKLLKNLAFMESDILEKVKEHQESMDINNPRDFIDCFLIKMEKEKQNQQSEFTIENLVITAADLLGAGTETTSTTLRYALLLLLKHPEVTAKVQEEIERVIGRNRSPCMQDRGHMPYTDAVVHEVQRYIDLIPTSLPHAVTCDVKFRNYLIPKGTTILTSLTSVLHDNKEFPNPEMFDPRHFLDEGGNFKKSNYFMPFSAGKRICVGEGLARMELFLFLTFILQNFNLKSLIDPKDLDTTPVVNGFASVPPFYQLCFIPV

[2] = Metabolic stability in human liver microsomes assessed as half life; type: ADME, Microsome
[3] = Stability in Balb/c mouse plasma measured upto 8 hrs; type: ADME, cell-free
[4] = Metabolic stability in human liver microsomes assessed as clearance; type: ADME, Microsome; conditions: read-out: CLH
[5] = Metabolic stability in mouse liver microsomes assessed as half life; type: ADME, Microsome
[6] = AUC (0 to t) in male BALB/c mouse at 10 mg/kg, po single administration measured upto 72 hrs by LC-MS/MS analysis; type: ADME, organism-based; conditions: in vivo
CYP1A2 = target: T2, CYP1A2 (Homo sapiens, UniProt P05177); assay: Inhibition of CYP1A2 in human liver microsomes assessed as compound remaining at 1 uM measured after 2 hrs incubation by LC-MS/MS analysis; type: ADME, Microsome; conditions: read-out: Activity
T2 sequence (P05177 whole entry): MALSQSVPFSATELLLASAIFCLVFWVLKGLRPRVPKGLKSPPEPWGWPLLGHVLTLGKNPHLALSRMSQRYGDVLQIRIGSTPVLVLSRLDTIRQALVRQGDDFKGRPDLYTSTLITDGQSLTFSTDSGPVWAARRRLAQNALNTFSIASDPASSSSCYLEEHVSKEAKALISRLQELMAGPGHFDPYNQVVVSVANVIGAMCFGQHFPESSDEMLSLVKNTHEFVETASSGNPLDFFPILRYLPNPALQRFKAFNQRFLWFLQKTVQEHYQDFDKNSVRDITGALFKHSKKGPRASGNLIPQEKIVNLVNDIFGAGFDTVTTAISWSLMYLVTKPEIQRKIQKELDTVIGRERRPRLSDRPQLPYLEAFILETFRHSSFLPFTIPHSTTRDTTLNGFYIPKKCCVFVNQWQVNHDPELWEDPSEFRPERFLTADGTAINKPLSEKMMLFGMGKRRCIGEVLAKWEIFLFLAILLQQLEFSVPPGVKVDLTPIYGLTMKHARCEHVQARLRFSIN

CYP3A4 = CYP3A4 (Homo sapiens, UniProt P08684); assay: Inhibition of CYP3A4 in human liver microsomes assessed as compound remaining at 1 uM measured after 2 hrs incubation by LC-MS/MS analysis; type: ADME, Microsome; conditions: read-out: Activity
Sequence of CYP3A4 (P08684 whole entry): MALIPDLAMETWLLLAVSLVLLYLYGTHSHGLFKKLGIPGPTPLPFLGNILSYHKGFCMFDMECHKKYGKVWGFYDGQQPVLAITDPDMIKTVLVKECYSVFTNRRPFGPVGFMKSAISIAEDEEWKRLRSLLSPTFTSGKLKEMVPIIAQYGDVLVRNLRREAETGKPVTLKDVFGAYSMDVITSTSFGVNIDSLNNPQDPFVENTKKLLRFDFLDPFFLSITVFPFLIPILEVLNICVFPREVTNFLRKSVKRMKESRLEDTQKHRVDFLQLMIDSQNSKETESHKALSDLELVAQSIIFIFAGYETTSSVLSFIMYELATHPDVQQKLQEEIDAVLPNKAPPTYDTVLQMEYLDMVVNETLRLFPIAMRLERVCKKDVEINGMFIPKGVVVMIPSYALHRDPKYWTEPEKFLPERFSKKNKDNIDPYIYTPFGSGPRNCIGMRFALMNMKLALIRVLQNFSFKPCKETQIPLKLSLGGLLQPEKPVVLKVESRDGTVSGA

CYP2D6 = CYP2D6 (Homo sapiens, UniProt P10635); assay: Inhibition of CYP2D6 in human liver microsomes assessed as compound remaining at 1 uM measured after 2 hrs incubation by LC-MS/MS analysis; type: ADME, Microsome; conditions: read-out: Activity
Sequence of CYP2D6 (P10635 whole entry): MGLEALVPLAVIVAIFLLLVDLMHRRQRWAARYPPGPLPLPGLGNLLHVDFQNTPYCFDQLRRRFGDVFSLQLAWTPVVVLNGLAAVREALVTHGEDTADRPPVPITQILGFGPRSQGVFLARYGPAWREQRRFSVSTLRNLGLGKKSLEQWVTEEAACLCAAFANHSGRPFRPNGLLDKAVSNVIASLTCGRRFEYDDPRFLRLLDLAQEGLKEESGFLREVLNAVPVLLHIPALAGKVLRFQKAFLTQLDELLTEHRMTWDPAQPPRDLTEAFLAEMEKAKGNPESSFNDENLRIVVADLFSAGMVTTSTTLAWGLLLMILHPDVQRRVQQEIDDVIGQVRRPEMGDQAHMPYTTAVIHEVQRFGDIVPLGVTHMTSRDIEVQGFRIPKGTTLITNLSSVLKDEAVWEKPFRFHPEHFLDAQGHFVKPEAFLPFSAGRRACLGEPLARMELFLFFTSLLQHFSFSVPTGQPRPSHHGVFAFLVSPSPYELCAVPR

[7] = Plasma protein binding in plasma (unknown origin) at 10 uM measured after 6 hrs incubation by LC-MS/MS analysis; type: ADME, cell-free; conditions: read-out: PPB (converted)
[8] = Metabolic stability in mouse liver microsomes assessed as clearance; type: ADME, Microsome; conditions: read-out: CLH
CYP2C9 = CYP2C9 (Homo sapiens, UniProt P11712); assay: Inhibition of CYP2C9 in human liver microsomes assessed as compound remaining at 1 uM measured after 2 hrs incubation by LC-MS/MS analysis; type: ADME, Microsome; conditions: read-out: Activity
Sequence of CYP2C9 (P11712 whole entry): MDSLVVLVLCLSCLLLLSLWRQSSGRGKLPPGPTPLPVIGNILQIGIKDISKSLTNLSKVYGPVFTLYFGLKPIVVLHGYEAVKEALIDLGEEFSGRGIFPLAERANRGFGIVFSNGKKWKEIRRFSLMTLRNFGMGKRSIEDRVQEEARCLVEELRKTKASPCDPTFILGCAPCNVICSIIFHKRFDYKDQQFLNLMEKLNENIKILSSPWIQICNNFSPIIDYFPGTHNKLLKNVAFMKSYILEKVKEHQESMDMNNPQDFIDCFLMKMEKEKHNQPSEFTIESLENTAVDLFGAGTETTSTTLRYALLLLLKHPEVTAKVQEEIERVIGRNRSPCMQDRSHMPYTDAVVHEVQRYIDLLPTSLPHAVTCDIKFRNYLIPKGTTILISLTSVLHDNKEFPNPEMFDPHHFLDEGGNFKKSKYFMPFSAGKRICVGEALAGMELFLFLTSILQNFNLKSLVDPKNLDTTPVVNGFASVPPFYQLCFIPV

P2X purinoceptor 7 = target: T3, P2X purinoceptor 7 (Mus musculus, UniProt Q9Z1M0); assay: Antagonist activity against mouse P2X7 receptor expressed in ATP-stimulated HEK293 cells assessed as influx of PI by fluorescence dye uptake assay relative to control; type: cell-based
T3 sequence (Q9Z1M0 whole entry): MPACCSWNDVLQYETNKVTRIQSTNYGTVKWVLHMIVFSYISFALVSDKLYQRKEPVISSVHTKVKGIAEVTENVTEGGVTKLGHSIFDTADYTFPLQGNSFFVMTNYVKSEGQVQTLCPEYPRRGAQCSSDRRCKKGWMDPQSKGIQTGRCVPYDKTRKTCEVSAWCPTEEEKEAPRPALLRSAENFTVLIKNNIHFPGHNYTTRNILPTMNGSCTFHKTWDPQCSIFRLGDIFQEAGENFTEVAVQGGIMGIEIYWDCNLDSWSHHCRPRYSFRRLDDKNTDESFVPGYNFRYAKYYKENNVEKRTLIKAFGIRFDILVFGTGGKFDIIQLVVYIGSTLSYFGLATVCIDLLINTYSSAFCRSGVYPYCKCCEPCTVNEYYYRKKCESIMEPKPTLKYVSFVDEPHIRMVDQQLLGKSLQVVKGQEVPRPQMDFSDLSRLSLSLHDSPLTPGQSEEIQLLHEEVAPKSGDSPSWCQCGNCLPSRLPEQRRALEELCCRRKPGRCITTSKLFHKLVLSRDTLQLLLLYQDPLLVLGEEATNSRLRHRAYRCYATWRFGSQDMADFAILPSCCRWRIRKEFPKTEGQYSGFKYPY

[9] = Toxicity in female C57BL/6 mouse assessed as decrease in body weight at 2 g/Kg measured for 2 to 6 days; conditions: in vivo, 2000 mg/kg, time 2-6 day
[10] = Toxicity in C57BL/6 mouse assessed as change in body weight at 2 g/Kg measured for 14 days; conditions: in vivo, 2000 mg/kg, 336 h, time 14 day
[11] = Half life in male BALB/c mouse at 10 mg/kg, po single administration measured upto 72 hrs by LC-MS/MS analysis; type: ADME, organism-based; conditions: in vivo
[12] = Tmax in male BALB/c mouse at 10 mg/kg, po single administration measured upto 72 hrs by LC-MS/MS analysis; type: ADME, organism-based; conditions: in vivo
[13] = Cmax in male BALB/c mouse at 10 mg/kg, po single administration measured upto 72 hrs by LC-MS/MS analysis; type: ADME, organism-based; conditions: in vivo
CYP2E1 = CYP2E1 (Homo sapiens, UniProt P05181); assay: Inhibition of CYP2E1 in human liver microsomes assessed as compound remaining at 1 uM measured after 2 hrs incubation by LC-MS/MS analysis; type: ADME, Microsome; conditions: read-out: Activity
Sequence of CYP2E1 (P05181 whole entry): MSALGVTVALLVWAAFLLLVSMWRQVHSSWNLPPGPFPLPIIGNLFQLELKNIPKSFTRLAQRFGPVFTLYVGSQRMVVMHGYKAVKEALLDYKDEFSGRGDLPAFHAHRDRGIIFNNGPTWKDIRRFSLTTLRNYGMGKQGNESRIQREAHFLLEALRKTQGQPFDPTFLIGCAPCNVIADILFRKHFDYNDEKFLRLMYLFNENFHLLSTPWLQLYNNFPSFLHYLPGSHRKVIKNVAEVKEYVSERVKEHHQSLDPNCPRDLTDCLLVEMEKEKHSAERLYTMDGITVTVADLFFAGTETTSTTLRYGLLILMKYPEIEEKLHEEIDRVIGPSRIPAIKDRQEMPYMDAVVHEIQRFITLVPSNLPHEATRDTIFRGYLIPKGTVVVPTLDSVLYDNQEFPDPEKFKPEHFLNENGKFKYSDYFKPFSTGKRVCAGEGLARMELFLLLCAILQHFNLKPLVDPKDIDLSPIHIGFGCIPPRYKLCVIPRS

HEK293 [14] = assay: Cytotoxicity against HEK293 cells expressing human P2X7 receptor assessed as cell viability upto 2 uM measured after 24 hrs incubation by CCK8 assay; type: toxicity, cell-based; conditions: hek293, 24 h
[15] = Clearance in male BALB/c mouse at 10 mg/kg, po single administration measured upto 72 hrs by LC-MS/MS analysis; type: ADME, organism-based; conditions: in vivo
HEK293 [16] = assay: Cytotoxicity against HEK293 cells expressing mouse P2X7 receptor assessed as cell viability upto 2 uM measured after 24 hrs incubation by CCK8 assay; type: toxicity, cell-based; conditions: human, hek293, 24 h

Sequence of Voltage-gated inwardly rectifying potassium channel KCNH2 (Q12809 whole entry): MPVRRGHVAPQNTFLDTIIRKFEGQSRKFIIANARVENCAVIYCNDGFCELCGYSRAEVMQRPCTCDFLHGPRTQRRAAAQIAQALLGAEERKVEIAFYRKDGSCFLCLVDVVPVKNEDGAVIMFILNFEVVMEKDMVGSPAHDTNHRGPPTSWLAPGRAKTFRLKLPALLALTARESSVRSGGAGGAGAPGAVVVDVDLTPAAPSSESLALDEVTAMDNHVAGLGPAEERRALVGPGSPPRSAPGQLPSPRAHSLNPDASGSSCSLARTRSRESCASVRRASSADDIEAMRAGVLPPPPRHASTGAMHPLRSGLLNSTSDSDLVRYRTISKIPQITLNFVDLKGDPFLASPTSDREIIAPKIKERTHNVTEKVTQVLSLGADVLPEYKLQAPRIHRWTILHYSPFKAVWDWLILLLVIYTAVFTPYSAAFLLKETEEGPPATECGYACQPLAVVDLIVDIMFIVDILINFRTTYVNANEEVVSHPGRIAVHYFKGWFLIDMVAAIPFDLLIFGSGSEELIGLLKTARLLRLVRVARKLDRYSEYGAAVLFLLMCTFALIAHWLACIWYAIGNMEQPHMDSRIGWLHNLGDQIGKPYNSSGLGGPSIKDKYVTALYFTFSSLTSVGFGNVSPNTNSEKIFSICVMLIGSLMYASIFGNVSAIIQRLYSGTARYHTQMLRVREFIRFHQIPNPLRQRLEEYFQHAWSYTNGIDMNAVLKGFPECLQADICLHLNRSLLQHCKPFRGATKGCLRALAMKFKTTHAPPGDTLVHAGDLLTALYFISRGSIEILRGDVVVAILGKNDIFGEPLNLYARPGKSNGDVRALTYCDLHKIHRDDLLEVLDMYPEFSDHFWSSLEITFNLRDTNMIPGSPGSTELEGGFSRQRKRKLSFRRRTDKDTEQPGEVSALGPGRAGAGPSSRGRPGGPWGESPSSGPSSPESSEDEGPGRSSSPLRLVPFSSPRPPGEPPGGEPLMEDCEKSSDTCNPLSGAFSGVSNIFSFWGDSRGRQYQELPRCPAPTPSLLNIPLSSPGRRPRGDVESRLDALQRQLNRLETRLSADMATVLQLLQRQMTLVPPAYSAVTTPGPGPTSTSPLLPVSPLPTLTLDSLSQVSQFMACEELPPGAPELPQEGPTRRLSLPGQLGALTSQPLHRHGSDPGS

Row | remaining at 2 h, 1 µM (CYP2A6) | remaining at 2 h, 1 µM (CYP2C19) | half-life [2] | Stability [3] | CLint scaled [4] | half-life [5] | AUC(0-t) at 72 h [6] | remaining at 2 h, 1 µM (CYP1A2) | remaining at 2 h, 1 µM (CYP3A4) | remaining at 2 h, 1 µM (CYP2D6) | fraction unbound at 6 h, 10 µM [7] | CLint scaled [8] | remaining at 2 h, 1 µM (CYP2C9) | IC50 (P2X purinoceptor 7) | half-life [11] | Tmax [12] | Cmax [13] | remaining at 2 h, 1 µM (CYP2E1) | CL/F [15] | SMILES | other results
1 | 100% | 100% | > 2 h | Stable | < 12 mL/min/kg | > 2 h | 1160 µg·h/mL | 100% | 100% | 100% | 0.003 | < 12 mL/min/kg | 100% | 25.3 nM | 162 h | 24 h | 19800 ng/mL | 100% |  | C[C@H](NC(=O)c1cnc(-c2ccc(S(C)(=O)=O)cc2)s1)c1cn(-c2cc(C(F)(F)F)ccn2)nn1 | IC50 [1]: > 30000 nM; Activity [9]: Non-toxic; Activity [10]: Non-toxic
2 |  |  | > 2 h |  | < 12 mL/min/kg | > 2 h | 103 µg·h/mL |  |  |  |  | < 12 mL/min/kg |  | 168 nM | 6.6 h | 3 h | 6610 ng/mL |  | 1.67 mL/min/kg | C[C@@H](NC(=O)c1csc(-c2ccc(S(C)(=O)=O)cc2)n1)c1cn(-c2cc(C(F)(F)F)ccn2)nn1 | Activity (HEK293 [14]): Non-toxic; Activity (HEK293 [16]): Non-toxic
3 | 84.2% | 84.2% | > 2 h | Stable | < 12 mL/min/kg | > 2 h | 86.5 µg·h/mL | 84.2% | 84.2% | 84.2% | 0.0213 | < 12 mL/min/kg | 84.2% | 54.7 nM | 4.71 h | 2.33 h | 6900 ng/mL | 84.2% | 2.17 mL/min/kg | C[C@@H](NC(=O)c1cnc(-c2ccc(S(C)(=O)=O)cc2)s1)c1cn(-c2cc(C(F)(F)F)ccn2)nn1 | 
